Test in all cases: inhibition of tumour cell growth, NCI panel, 48 h
Assay [1] concerns MCF7.
In assay [2] the test system is Malme-3M.
Assay [3] deals with MDA-N.
Assay [4] concerns SNB-19.
The test system of assay [5] is LOX IMVI.
Assay [6] concerns A549.
The test system of assay [7] is T47D.
The subject of assay [8] is SK-MEL-28.
Assay [9] has as its system K562.
For assay [10], the system named is SW-620.
The subject of assay [11] is HCT-15.
Assay [12] has as its system OVCAR-3.
Assay [13] relates to Hs-578T.
In assay [14] the test system is SR.
Assay [15] has as its system TK-10.
Assay [16] concerns COLO 205.
Assay [17] concerns UACC-257.
Assay [18] has as its system A498.
Assay [19] concerns UACC-62.
Assay [20] concerns HL-60.

Structures are written as SMILES.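 Method: 48-hour compound exposure of cells in 96-well plates, five concentrations, linear interpolation of endpoints. The concentration for 50% growth inhibition is given as GI50.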 The source made the active and inactive calls. No stated cut-off is given here; in the data, active = GI50 up to about 1.1 µM and inactive = higher.

Take `Cc1ccc(/C=C2/N/C(=N\N=C/c3ccccc3)NC2=O)cc1`: the GI50 in assay [1] was 28.8 µM (inactive); in assay [2], 42.5 µM (inactive); in assay [3], 28.2 µM (inactive); in assay [4] it was 25.8 µM (inactive); in assay [5], 39.1 µM (inactive); in assay [6], 44.2 µM (inactive). Besides, the GI50 in assay [7] was 28.7 µM (inactive); in assay [8], 36.4 µM (inactive); in assay [9] it was 34.3 µM (inactive); in assay [10], 41.6 µM (inactive); in [11], 30.9 µM; in [12], 44.8 µM (inactive). The GI50 in assay [13] was 25.8 µM (inactive); in [14], 30.6 µM (inactive); in assay [15], 32.2 µM (inactive); in assay [16] it was 56.5 µM (inactive); in assay [17], > 100 µM (inactive).
As for `C[N+](C)(CCNC(=O)c1cccc2cc3ccccc3nc12)Cc1ccc([N+](=O)[O-])s1`, the GI50 in assay [1], in assay [2], in assay [3], in assay [5], in assay [6] and in assay [7] was > 25 µM (inactive) each time. Further, the GI50 in assay [8] is > 25 µM (inactive); in assay [9], > 25 µM (inactive); in assay [18], > 25 µM (inactive); in assay [10], > 25 µM (inactive); in [11], over 25 µM; in assay [19], > 25 µM (inactive). In addition, the GI50 in [20] is 10.9 µM (inactive); in [12], > 25 µM (inactive); in assay [13], > 25 µM (inactive); in assay [15] it was > 25 µM (inactive); in [16], > 25 µM (inactive); in [17] it was > 25 µM (inactive).
Consider `CN(C)CCCN1c2ccc([N+](=O)[O-])cc2CCc2cc([N+](=O)[O-])ccc21`, for which the GI50 was 15.6 µM (inactive) in assay [1]; 17.8 µM (inactive) in [2]; 13.6 µM (inactive) in assay [3]; 15.4 µM (inactive) in [4]; 13.2 µM (inactive) in assay [5]; 16.4 µM (inactive) in assay [6]. The GI50 in assay [7] is 16.1 µM (inactive); in assay [8], 15 µM (inactive); in [9], 13.1 µM (inactive); in assay [18], 10.3 µM (inactive); in assay [10], 16 µM (inactive); in assay [11], 17.4 µM. Further, the GI50 in [19] is 14.7 µM (inactive); in [20], 14.1 µM (inactive); in assay [12] it was 16 µM (inactive); in assay [13], 17.4 µM (inactive); in [15], 12 µM (inactive); in [16] it was 14.2 µM (inactive). Besides, the GI50 in assay [17] was 13.9 µM (inactive).
For `C=CCC1(C(=O)OC)CCC/C(=N\O)C1` (stereo unspecified), the GI50 in [1], in assay [2], in [3], in [4], in assay [5] and in assay [6] was > 10 µM (inactive) each time. Further, the GI50 in [7] is > 10 µM (inactive); in assay [8], > 10 µM (inactive); in assay [9], > 10 µM (inactive); in assay [10], > 10 µM (inactive); in assay [11], over 10 µM; in [19] it was > 10 µM (inactive). The GI50 in [20], in [12], in [13], in assay [14], in assay [15] and in assay [16] was > 10 µM (inactive) throughout. Also, in assay [17], the GI50 was > 10 µM (inactive).
On to `Cc1ccc(F)cc1NC(=O)O/N=C(\Cl)C(C)C`, for which the GI50 in assay [1] was 6.4 µM (inactive); in [2] it was 2.7 µM (inactive); in [3] it was 5.62 µM (inactive); in assay [4] it was 35.5 µM (inactive); in assay [5] it was 1.98 µM (inactive); in assay [6] it was 18.9 µM (inactive). The GI50 in [7] is 4.73 µM (inactive); in assay [8], 15.8 µM (inactive); in [9], 1.97 µM (inactive); in assay [18] it was 20 µM (inactive); in assay [10], 2.35 µM (inactive); in [11], 1.82 µM. Also, the GI50 in [19] was 13.2 µM (inactive); in assay [20], 2.32 µM (inactive); in assay [12], 6.47 µM (inactive); in [13], 22.5 µM (inactive); in assay [15], 3.71 µM (inactive); in assay [16], 1.9 µM (inactive). Besides, the GI50 in assay [17] was 19 µM (inactive).
As for `Clc1ccc(OCC2NC3CCC2CC3)cn1` (stereo unspecified), the GI50 in assay [1] was 17.9 µM (inactive); in [2], 19.5 µM (inactive); in [3] it was 16.8 µM (inactive); in [4], 34.4 µM (inactive); in [5], 18.4 µM (inactive); in assay [6] it was 37.9 µM (inactive). The GI50 in [7] is 29.8 µM (inactive); in assay [8], 37.8 µM (inactive); in [9] it was 17.5 µM (inactive); in assay [10], 22.7 µM (inactive); in assay [11] it was 20.7 µM; in assay [19], 17.7 µM (inactive). Also, the GI50 in [20] is 24.4 µM (inactive); in assay [12], 60.4 µM (inactive); in assay [13] it was 57.1 µM (inactive); in assay [14] it was 18.7 µM (inactive); in [15] it was 42.3 µM (inactive); in [16], 17.1 µM (inactive). The GI50 in [17] is 17.8 µM (inactive).
`COc1ccccc1CNCCCCCNCCCCCCCCCCNCCCCCNCc1ccccc1OC`: the GI50 in assay [1] is 18 µM (inactive); in [2], 24.8 µM (inactive); in [3], 18.2 µM (inactive); in assay [4], 38.1 µM (inactive); in [5], 16.7 µM (inactive); in assay [6], 23.4 µM (inactive). Besides, the GI50 in assay [7] is 54.7 µM (inactive); in assay [8], 79.1 µM (inactive); in assay [9], 13.6 µM (inactive); in assay [10] it was 34.4 µM (inactive); in assay [11], over 100 µM; in assay [19] it was 36.6 µM (inactive). The GI50 was 21.8 µM (inactive) in assay [20]; 47 µM (inactive) in assay [12]; 1.05 µM (active) in [13]; 14.9 µM (inactive) in assay [14]; 54.6 µM (inactive) in assay [15]; 34.3 µM (inactive) in assay [16].
As for `N=C(N)SCC(=O)O`, the GI50 in assay [1], in assay [2], in [3], in assay [4], in [5] and in assay [6] was > 100 µM (inactive) in each case. For the same compound, the GI50 in [7] is > 100 µM (inactive); in assay [8] it was > 100 µM (inactive); in assay [9] it was 5.68 µM (inactive); in assay [18], > 100 µM (inactive); in assay [10], > 100 µM (inactive); in [11], over 100 µM. For the same compound, the GI50 in assay [19], in assay [12], in [13], in [15], in [16] and in assay [17] was > 100 µM (inactive) in each case.
As to `O=C(c1ccccc1)C1C[C@H]2CO[C@H](c3ccccc3)N2C1=O` (stereo partly specified), the GI50 in [1], in assay [2], in [3], in assay [4], in assay [5] and in assay [6] was > 100 µM (inactive) each time. Moreover, the GI50 in assay [7] was > 100 µM (inactive); in assay [8] it was > 100 µM (inactive); in assay [9] it was > 100 µM (inactive); in [10], > 100 µM (inactive); in assay [11] it was over 100 µM; in assay [19], > 100 µM (inactive). Further, the GI50 in assay [12], in assay [13], in [14], in [15], in assay [16] and in assay [17] was > 100 µM (inactive) throughout.
Regarding `C/C=C1\CC(C(=O)OCC)CCCCCCC1=O` (stereo unspecified), the GI50 in [1], in assay [2], in assay [3], in assay [4], in assay [5] and in assay [6] was > 100 µM (inactive) each time. Moreover, the GI50 is > 100 µM (inactive) in assay [7]; > 100 µM (inactive) in assay [8]; > 100 µM (inactive) in assay [18]; > 100 µM (inactive) in assay [10]; over 100 µM in [11]; 59.2 µM (inactive) in assay [19]. The GI50 was 51.1 µM (inactive) in [20]; > 100 µM (inactive) in assay [13]; > 100 µM (inactive) in [15]; > 100 µM (inactive) in [16]; > 100 µM (inactive) in assay [17].
With `CCC1(N)C(=O)OCc2c1cc1n(c2=O)Cc2cc3ccccc3nc2-1` (stereo unspecified), the GI50 was 2.14 µM (inactive) in [1]; 44.3 µM (inactive) in [2]; 17.7 µM (inactive) in assay [3]; 7.67 µM (inactive) in [4]; 4.78 µM (inactive) in assay [5]; 6.58 µM (inactive) in [6]. For the same compound, the GI50 in [7] is 2.35 µM (inactive); in assay [8], > 93.1 µM (inactive); in assay [9], 18.9 µM (inactive); in assay [18] it was 4.74 µM (inactive); in [10] it was 25.7 µM (inactive); in assay [11], 32.7 µM. Further, the GI50 was 2.75 µM (inactive) in assay [19]; 1.74 µM (inactive) in [20]; > 55.7 µM (inactive) in [12]; > 100 µM (inactive) in assay [13]; > 74.3 µM (inactive) in [15]; 30.5 µM (inactive) in assay [16]. Also, the GI50 in assay [17] was 36.6 µM (inactive).
